The results in this text go back to patent US8008525B2, “Receptor function regulating agent” (Takeda Pharmaceutical Company Limited, priority 2003, dated 2011).

For series [1], the target named is T1, human 14273 receptor (Homo sapiens, UniProt Q5NUL3).
T1 construct: expressed in transfected cells
T1 sequence (Q5NUL3 1-361): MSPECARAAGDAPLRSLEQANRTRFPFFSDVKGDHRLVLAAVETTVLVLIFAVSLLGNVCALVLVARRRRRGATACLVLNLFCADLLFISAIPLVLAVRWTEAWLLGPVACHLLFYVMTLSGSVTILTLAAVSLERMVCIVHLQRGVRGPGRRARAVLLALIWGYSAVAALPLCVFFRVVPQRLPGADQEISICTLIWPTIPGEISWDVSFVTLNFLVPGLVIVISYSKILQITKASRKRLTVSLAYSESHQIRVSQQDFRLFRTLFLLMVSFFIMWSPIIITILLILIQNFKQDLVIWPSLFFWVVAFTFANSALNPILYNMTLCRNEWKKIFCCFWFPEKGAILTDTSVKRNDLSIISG
Nature of the series: Reference Example A2: reactivity of fatty acids, intracellular calcium by FLIPR in CHO-K1 cells expressing human 14273 receptor. It is filed as cell-based. The note with it: 30 μM fatty acid; CHO-K1 cells transiently expressing human 14273; FLIPR (FIG. 1-5). As for the experimental part:
(§1) CHO-K1 cell line was cultured using Ham's F-12 medium (Invitrogen) containing 10% fetal bovine serum (Invitrogen), unless otherwise described. On the day before transfection was conducted, 4.5×10^5 cells were dispersed per 10 cm^2, and cultured at 37° C. for 15 hours by a CO2 incubator adjusted to a CO2 concentration of 5%. Transfection was carried out using a Lipofectamine reagent (Invitrogen) in accordance with the instruction accompanying the reagent. In the case of using a 6-well plate as culture dish, the following steps were performed. First of all, two tubes having a volume of 1.5 ml each were provided, and 100 μl of an Opti-MEM-I medium (Invitrogen) was dispensed to each of the tubes. Next, after adding 1 μg of an expression vector to one tube and adding 6 μl of the Lipofectamine reagent to the other tube, both of them were mixed, and left at rest at room temperature for 20 minutes. A mixture for transfection, in which 800 μl of the Opti-MEM-I medium was added to this solution, was added to the CHO-K1 cells previously washed using the Opti-MEM-I medium, and then the cells were cultured in the CO2 incubator for 6 hours. The cells after culturing were rinsed using PBS (Invitrogen), then detached using a 0.05% trypsin/EDTA solution (Invitrogen), and recovered through centrifugation. The number of the obtained cells was measured, and the cells were diluted to a concentration of 5×10^4 cells per 100 μl of the medium. This dilution was separately injected to a Black-walled 96-well plate (Costar) in an amount of 100 μl per well, and then the cells were incubated overnight in a CO2 incubator. To the CHO-K1 cells which transiently expressed the receptor during the transfection operation, various test samples were added, and the change in the intracellular calcium concentration during this operation was measured using FLIPR (Molecular Device). In order to measure the change in the intracellular calcium concentration with FLIPR, the following pretreatment was performed. First, Assay Buffer for washing cells was prepared in order to add a fluorescent dye Fluo3-AM (DOJIN) to the cells, or to wash cells immediately before performing the FLIPR assay. To a solution prepared by adding 20 ml of 1 M HEPES (pH 7.4) (DOJIN) to 1000 ml of HBSS (Invitrogen) (hereinafter, HBSS/HEPES solution), 10 ml of a solution prepared by dissolving 710 mg of probenecid (Sigma) in 5 ml of a 1 N NaOH solution, and then further added 5 ml of the HBSS/HEPES solution thereto was added, and this solution was used as the Assay Buffer. […] After performing the pretreatment as described above, the changes in the intracellular calcium concentration after addition of various test samples were measured using FLIPR.

Another series concerns the target T2, mouse 14273 receptor (Mus musculus, UniProt Q7TMA4).
T2 construct: expressed in transfected cells; host or cells: CHO-K1 cells, transient transfection with Lipofectamine
T2 sequence (Q7TMA4 1-361): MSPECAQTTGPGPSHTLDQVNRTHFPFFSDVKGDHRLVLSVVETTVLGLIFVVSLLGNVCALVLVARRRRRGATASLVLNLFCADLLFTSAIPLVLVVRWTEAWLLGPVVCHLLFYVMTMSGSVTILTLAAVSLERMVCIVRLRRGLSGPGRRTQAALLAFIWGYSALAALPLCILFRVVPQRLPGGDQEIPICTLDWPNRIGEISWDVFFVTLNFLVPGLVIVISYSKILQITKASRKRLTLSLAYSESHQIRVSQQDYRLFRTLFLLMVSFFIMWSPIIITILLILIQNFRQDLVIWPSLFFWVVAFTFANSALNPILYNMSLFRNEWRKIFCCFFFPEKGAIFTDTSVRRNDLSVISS
Nature of the series: Reference Example A2: reactivity of fatty acids, intracellular calcium by FLIPR in CHO-K1 cells expressing mouse 14273 receptor. The settings on record: 30 μM fatty acid; CHO-K1 cells transiently expressing mouse 14273; FLIPR (FIG. 1-5). It is filed as cell-based. As for the experimental part: as §1

A further series deals with AtT-20 cells. Briefly: Reference Example A10: inhibitory activity of fatty acids against CRF-induced ACTH secretion from AtT-20 cells. The note with it: 10 nM CRF; 90 minutes; fatty acids conjugated with BSA; adhesive AtT-20 substrain (FIG. 13).
In series [2] the target is T1, human 14273 receptor. Briefly: Test Example 1: regulating effect for 14273 receptor function (agonist effect), change in intracellular calcium level by FLIPR. It is filed as cell-based. The settings on record: CHO cell line (No. 104) expressing human 14273 receptor, change of fluorescent intensity after 35 seconds. As for the experimental part:
CHO cell lines (No. 104) in which a human 14273 receptor has expressed was diluted to contain 3×10^4/100 μl cells, and dispensed in Black walled 96-well plate (Costar) at a density of 100 μl/well, followed by culturing overnight in a CO2 incubator. A change in intracellular calcium level was measured using FLIPR (Molecular Device). The method is described as below. 50 μg of Fluo-3AM (DOJIN) was dissolved in 21 μl of DMSO (DOJIN) and an equal volume of 20% pluronic acid (Molecular Probes) was added thereto, followed by mixing them. The mixture was added to 10.6 ml of the assay buffer [which is prepared by adding 10 ml of a solution, which is prepared by adding 20 ml of 1 M HEPES (pH 7.4, DOJIN) to 1 L of HBSS (Invitrogen), dissolving 710 mg of probenecid (Sigma) in 5 ml of 1 N NaOH, and further adding 5 ml of the above-mentioned HBSS/HEPES solution and mixing it.] supplemented with 105 μl of fetal bovine serum to prepare a fluorescent dye solution. The medium of the cell plate was removed, the fluorescent dye solution was dispensed in 100 μl each per well. The culturing was performed in a CO2 incubator for 1 hour to incorporate the fluorescent dye into the cells. The cells after culturing were washed with the assay buffer. The compounds to be added to the cells were diluted to each concentration with a buffer solution to which CHAPS (DOJIN) was added in 0.015%, and dispensed in a plate for the test sample. Following the pretreatment above, a change in intracellular calcium level after addition of the compound was determined with FLIPR to investigate the agonist effect. An EC50 value was calculated from dose-reaction curve using the change of fluorescent intensity after 35 seconds from the reaction initiation.

Consider `CCCCC/C=C\C/C=C\CCCCCCCC(=O)O` [linoleic acid], for which the “response (increase in the intracellular calcium concentration)” value on human 14273 receptor [1] and on mouse 14273 receptor was “specifically responsed” in each case.

The compound `Cl.NCCOc1cc(COc2ccc(CCC(=O)O)cc2F)cc(Oc2ccccc2)c1` gave a melting point of 182 to 183 °C.

With `CCCC(=O)O` [butyric acid], the “suppression of CRF-induced ACTH secretion” value (“suppression” below) in the series on AtT-20 cells is “did not exhibit significant inhibition”.

As for `CCCCC/C=C\C/C=C\C/C=C\C/C=C\CCCC(=O)O` [arachidonic acid], the “response (increase in the intracellular calcium concentration)” value at human 14273 receptor [1] and on mouse 14273 receptor was “specifically responsed” each time.

As for `CCCCC/C=C\C/C=C\C/C=C\CCCCC(=O)O` [γ-linolenic acid], the “response (increase in the intracellular calcium concentration)” value at human 14273 receptor [1] and at mouse 14273 receptor was “specifically responsed” throughout. The “suppression” value with AtT-20 cells is given as “significant suppression”.

For the compound `CC/C=C\C/C=C\C/C=C\CCCCCCCC(=O)O` [α-linolenic acid], in the series on AtT-20 cells, the “suppression” value is reported as “significant suppression”.

`O=C(O)CCc1ccc(OCc2cccc(OCC(=O)O)c2)c(F)c1` [Example 107, 3-(4-{[3-(carboxymethoxy)benzyl]oxy}-3-fluorophenyl)propanoic acid] returned a melting point of 150 to 151 °C.

Consider `O=C(O)CCc1cc(F)c(OCc2cccc(Oc3cccs3)c2)c(F)c1` [Example 64, 3-(3,5-difluoro-4-{[3-(2-thienyloxy)benzyl]oxy}phenyl)propanoic acid], for which, at human 14273 receptor [2], the EC50 is no more than 10 µM.

On to `O=C(O)CCc1cc(F)c(OCc2ccccc2OC2CCCC2)c(F)c1` [Example 28, 3-(4-{[2-(cyclopentyloxy)benzyl]oxy}-3,5-difluorophenyl)propanoic acid], for which the EC50 at human 14273 receptor [2] was no more than 10 µM.

As for `CCCCCC/C=C\CCCCCCCC(=O)O` [palmitoleic acid], the “response (increase in the intracellular calcium concentration)” value at human 14273 receptor [1] and on mouse 14273 receptor was “specifically responsed” each time.

`CC(C)COc1ccccc1COc1c(F)cc(CCC(=O)O)cc1F` [Example 32, 3-{3,5-difluoro-4-[(2-isobutoxybenzyl)oxy]phenyl}propanoic acid]: the EC50 on human 14273 receptor [2] is no more than 10 µM.

Take `O=C(O)CCc1ccc(OCc2cccc(Oc3ccccc3)c2)cc1` [Reference Example 8, 4-[(3-Phenoxyphenyl)methoxy]benzenepropanoic acid]: on human 14273 receptor [2], the EC50 was no more than 10 µM.

For `CC(C)COc1cccc(COc2c(F)cc(CCC(=O)O)cc2F)c1` [Example 135, 3-{3,5-difluoro-4-[(3-isobutoxybenzyl)oxy]phenyl}propanoic acid], the EC50 on human 14273 receptor [2] was no more than 10 µM.

With `O=C(O)CCc1cc(F)c(OCc2cccc(Oc3nccs3)c2)c(F)c1` [Example 68, 3-(3,5-difluoro-4-{[3-(1,3-thiazol-2-yloxy)benzyl]oxy}phenyl)propanoic acid], the EC50 at human 14273 receptor [2] was no more than 10 µM.

As to `O=C(O)CCc1ccc(OCc2cccc(Oc3ccccc3)c2)c(Cl)c1` [Example 4, 3-Chloro-4-[(3-phenoxyphenyl)methoxy]benzenepropanoic acid], on human 14273 receptor [2], the EC50 was no more than 10 µM.

Consider `CCOc1cc(COc2ccc(CCC(=O)O)cc2F)cc(OCC)c1` [Example 96, 3-{4-[(3,5-diethoxybenzyl)oxy]-3-fluorophenyl}propanoic acid], for which the EC50 at human 14273 receptor [2] is no more than 10 µM.

As for `O=C(O)CCc1cc(F)c(OCc2cccc(Oc3ccccn3)c2)c(F)c1` [Example 60, 3-(3,5-difluoro-4-{[3-(pyridin-2-yloxy)benzyl]oxy}phenyl)propanoic acid], the half-maximal effective concentration (EC50) on human 14273 receptor [2] was no more than 10 µM.

`O=C(O)CCc1ccc(OCc2cc(OCC(=O)O)cc(Oc3ccccc3)c2)c(F)c1` [Example 129, 3-(4-{[3-(carboxymethoxy)-5-phenoxybenzyl]oxy}-3-fluorophenyl)propanoic acid]: the melting point fell in the range of 122 to 124 °C.

Regarding `COc1ccc(Oc2cccc(COc3c(F)cc(CCC(=O)O)cc3F)c2)cc1` [Example 46, 3-(3,5-difluoro-4-{[3-(4-methoxyphenoxy)benzyl]oxy}phenyl)propanoic acid], on human 14273 receptor [2], the EC50 was no more than 10 µM.

As to `Cc1cc(CCC(=O)O)ccc1OCc1cccc(OC(C)C)c1` [Example 178, 3-{4-[(3-isopropoxybenzyl)oxy]-3-methylphenyl}propanoic acid], the EC50 at human 14273 receptor [2] was no more than 10 µM.

Consider `O=C(O)CCc1ccc(OCc2cccc(Oc3ccccc3)c2)c(F)c1` [Example 12, 3-Fluoro-4-[(3-phenoxyphenyl)methoxy]benzenepropanoic acid], for which the EC50 at human 14273 receptor [2] is no more than 10 µM.
